The values below come from ChEMBL document CHEMBL1629455, “Discovery of a novel class of biphenyl pyrazole sodium channel blockers for treatment of neuropathic pain” (Bioorg Med Chem Lett, 2010).

Bounds are passed on as bounds.

In data set [1] the test system is Mus musculus. Description: Neurotoxicity in conscious mouse assessed as effect on CNS function at 100 mg/kg after 2 hrs. The data set is classed as toxicity, organism-based, Central nervous system. Also on record: dose 100 mg/kg. The settings on record: in vivo.
The test system of data set [2] is Canis familiaris. As to the kind of experiment: Cardiotoxicity in anesthetized dog assessed as effect on QTc interval at 1 mg/kg, iv. Also on record: dose 1 mg/kg, route intravenous. As to conditions: in vivo. The data set is classed as toxicity, organism-based, Canis lupus familiaris.
Data set [3] has as its system Canis familiaris. As to the kind of experiment: Cardiotoxicity in anesthetized dog assessed as effect on QRS interval at 3 mg/kg, iv. Also on record: dose 3 mg/kg, route intravenous. The data set is classed as toxicity, organism-based, Canis lupus familiaris. The settings on record: in vivo.
For data set [4], the system named is Canis familiaris. Description: Cardiotoxicity in anesthetized dog assessed as effect on QRS interval at 1 mg/kg, iv. The data set is classed as toxicity, organism-based, Canis lupus familiaris. Further details: dose 1 mg/kg, route intravenous. The settings on record: in vivo.
The subject of data set [5] is Canis familiaris. As to the kind of experiment: Cardiotoxicity in anesthetized dog assessed as effect on heart rate at 10 mg/kg, iv. The data set is classed as toxicity, organism-based, Canis lupus familiaris. Also on record: dose 10 mg/kg, route intravenous. The settings on record: in vivo.
Data set [6] has as its system Canis familiaris. Description: Cardiotoxicity in anesthetized dog assessed as effect on heart rate at 3 mg/kg, iv. Format: toxicity, organism-based, Canis lupus familiaris. The settings on record: in vivo. Also on record: dose 3 mg/kg, route intravenous.
Data set [7] in a line: AUC in dog at 20 mg/kg, po. The data set is classed as ADME, organism-based, Canis lupus familiaris. Also on record: dose 20 mg/kg, route oral. The settings on record: plasma.
Data set [8] is described as follows: Cmax in dog at 20 mg/kg, po. Also on record: dose 20 mg/kg, route oral. The settings on record: in vivo. The data set is classed as ADME, organism-based, Canis lupus familiaris.
Data set [9] in a line: Bioavailability in dog at 0.5 mg/kg, iv and 2 mg/kg, po. Format: ADME, organism-based, Canis lupus familiaris. As to conditions: in vivo.
Data set [10] is described as follows: AUC in dog at 2 mg/kg, po. As to conditions: plasma. The data set is classed as ADME, organism-based, Canis lupus familiaris. Further details: dose 2 mg/kg, route oral.
A short description of data set [11]: Cmax in dog at 0.5 mg/kg, iv and 2 mg/kg, po. Format: ADME, organism-based, Canis lupus familiaris. As to conditions: in vivo.
A short description of data set [12]: Bioavailability in rat at 1 mg/kg, iv and 3 mg/kg, po. The settings on record: in vivo. The data set is classed as ADME, organism-based.
Data set [13] concerns Rattus norvegicus. Description: Clearance in rat plasma at 1 mg/kg, iv and 3 mg/kg, po. The data set is classed as ADME, organism-based. As to conditions: in vivo.
Data set [14] is described as follows: Metabolic stability in rat liver microsomes assessed as compound remaining after 60 mins in presence of 10 uM substrate. The settings on record: read-out: Stability. The data set is classed as ADME, Microsome.
A further data set deals with Cytochrome P450 3A4 (Homo sapiens, UniProt P08684). As to the kind of experiment: Inhibition of CYP3A4. The data set is classed as ADME.
Cytochrome P450 3A4, sequence (P08684 whole entry): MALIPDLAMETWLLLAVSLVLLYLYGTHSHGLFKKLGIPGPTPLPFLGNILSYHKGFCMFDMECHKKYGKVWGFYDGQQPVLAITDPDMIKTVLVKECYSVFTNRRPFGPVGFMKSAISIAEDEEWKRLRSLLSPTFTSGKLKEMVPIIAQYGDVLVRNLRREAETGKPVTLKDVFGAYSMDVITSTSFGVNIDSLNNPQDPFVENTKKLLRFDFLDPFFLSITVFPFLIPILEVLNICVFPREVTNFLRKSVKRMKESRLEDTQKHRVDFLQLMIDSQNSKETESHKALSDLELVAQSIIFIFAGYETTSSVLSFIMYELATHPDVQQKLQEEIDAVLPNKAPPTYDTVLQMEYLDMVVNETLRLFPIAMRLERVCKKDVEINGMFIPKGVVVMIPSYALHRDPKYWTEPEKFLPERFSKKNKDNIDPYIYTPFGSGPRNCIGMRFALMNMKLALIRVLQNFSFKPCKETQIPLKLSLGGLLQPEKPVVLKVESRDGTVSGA
For data set [15], the target named is Cav1.2 (L-type calcium channel subunit alpha-1C) (Homo sapiens, UniProt Q13936). As to the kind of experiment: Inhibition of DLZ binding to Cav1.2 at 10 uM. The settings on record: probe DLZ.
Cav1.2 (L-type calcium channel subunit alpha-1C), sequence (Q13936 whole entry): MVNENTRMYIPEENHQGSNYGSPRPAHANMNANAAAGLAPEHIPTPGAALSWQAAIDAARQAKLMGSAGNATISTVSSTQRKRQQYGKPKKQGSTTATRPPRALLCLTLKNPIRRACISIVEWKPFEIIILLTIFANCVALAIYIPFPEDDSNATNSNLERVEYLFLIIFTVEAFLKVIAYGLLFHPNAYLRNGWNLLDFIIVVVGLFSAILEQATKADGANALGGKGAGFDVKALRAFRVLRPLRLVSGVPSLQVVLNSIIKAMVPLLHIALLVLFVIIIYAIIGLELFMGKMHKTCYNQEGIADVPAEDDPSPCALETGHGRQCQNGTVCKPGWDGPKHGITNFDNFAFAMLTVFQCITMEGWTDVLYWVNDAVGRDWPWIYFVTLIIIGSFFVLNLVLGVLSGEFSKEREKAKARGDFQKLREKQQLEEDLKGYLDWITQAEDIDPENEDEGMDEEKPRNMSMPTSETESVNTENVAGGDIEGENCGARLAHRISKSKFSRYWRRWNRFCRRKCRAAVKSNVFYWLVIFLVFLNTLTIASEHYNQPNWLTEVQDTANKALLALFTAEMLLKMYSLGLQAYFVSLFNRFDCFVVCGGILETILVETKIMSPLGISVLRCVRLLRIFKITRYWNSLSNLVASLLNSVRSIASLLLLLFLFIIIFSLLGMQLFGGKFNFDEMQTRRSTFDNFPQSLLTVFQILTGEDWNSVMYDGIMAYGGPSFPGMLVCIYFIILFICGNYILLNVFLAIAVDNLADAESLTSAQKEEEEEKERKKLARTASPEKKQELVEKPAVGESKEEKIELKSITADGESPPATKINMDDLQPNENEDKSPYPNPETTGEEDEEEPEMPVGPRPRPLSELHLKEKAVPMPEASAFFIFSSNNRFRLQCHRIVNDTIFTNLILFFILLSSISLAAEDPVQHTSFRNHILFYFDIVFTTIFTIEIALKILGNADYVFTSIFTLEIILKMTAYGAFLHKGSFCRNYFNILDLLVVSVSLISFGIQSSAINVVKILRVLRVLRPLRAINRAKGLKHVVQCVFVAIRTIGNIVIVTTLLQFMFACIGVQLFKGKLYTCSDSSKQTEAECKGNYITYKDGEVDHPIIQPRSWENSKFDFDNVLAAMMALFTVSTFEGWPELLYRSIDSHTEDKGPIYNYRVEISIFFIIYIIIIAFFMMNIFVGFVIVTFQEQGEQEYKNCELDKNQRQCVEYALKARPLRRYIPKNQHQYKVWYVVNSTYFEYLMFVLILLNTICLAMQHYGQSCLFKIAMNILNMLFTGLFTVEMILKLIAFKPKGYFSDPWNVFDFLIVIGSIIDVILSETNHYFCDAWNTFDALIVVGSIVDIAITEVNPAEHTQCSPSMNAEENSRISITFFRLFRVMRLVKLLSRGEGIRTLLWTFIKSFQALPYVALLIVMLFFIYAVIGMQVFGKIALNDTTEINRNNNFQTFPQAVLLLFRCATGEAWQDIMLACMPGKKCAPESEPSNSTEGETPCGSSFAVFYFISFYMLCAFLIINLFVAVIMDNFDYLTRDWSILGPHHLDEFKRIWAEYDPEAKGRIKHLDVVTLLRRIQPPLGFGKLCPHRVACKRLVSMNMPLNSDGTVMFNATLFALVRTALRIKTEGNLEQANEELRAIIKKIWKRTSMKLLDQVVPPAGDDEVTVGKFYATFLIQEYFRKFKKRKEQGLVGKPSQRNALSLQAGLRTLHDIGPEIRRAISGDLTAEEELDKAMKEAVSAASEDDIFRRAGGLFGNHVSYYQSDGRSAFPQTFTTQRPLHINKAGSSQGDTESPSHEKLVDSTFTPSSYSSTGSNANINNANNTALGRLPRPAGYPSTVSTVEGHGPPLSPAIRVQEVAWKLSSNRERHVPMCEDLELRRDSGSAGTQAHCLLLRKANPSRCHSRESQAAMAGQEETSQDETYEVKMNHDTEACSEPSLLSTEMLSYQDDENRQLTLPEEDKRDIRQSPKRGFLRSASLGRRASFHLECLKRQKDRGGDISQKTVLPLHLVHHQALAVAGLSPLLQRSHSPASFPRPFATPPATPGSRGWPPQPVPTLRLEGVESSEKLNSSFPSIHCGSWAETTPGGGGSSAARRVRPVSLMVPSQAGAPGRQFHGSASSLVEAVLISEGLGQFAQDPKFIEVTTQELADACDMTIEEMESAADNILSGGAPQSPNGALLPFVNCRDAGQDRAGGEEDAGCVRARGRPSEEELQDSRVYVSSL
The target in another data set is hERG (KCNH2) (Homo sapiens, UniProt Q12809). As to the kind of experiment: Inhibition of human ERG at 30 uM by electrophysiology assay.
hERG (KCNH2), sequence (Q12809 whole entry): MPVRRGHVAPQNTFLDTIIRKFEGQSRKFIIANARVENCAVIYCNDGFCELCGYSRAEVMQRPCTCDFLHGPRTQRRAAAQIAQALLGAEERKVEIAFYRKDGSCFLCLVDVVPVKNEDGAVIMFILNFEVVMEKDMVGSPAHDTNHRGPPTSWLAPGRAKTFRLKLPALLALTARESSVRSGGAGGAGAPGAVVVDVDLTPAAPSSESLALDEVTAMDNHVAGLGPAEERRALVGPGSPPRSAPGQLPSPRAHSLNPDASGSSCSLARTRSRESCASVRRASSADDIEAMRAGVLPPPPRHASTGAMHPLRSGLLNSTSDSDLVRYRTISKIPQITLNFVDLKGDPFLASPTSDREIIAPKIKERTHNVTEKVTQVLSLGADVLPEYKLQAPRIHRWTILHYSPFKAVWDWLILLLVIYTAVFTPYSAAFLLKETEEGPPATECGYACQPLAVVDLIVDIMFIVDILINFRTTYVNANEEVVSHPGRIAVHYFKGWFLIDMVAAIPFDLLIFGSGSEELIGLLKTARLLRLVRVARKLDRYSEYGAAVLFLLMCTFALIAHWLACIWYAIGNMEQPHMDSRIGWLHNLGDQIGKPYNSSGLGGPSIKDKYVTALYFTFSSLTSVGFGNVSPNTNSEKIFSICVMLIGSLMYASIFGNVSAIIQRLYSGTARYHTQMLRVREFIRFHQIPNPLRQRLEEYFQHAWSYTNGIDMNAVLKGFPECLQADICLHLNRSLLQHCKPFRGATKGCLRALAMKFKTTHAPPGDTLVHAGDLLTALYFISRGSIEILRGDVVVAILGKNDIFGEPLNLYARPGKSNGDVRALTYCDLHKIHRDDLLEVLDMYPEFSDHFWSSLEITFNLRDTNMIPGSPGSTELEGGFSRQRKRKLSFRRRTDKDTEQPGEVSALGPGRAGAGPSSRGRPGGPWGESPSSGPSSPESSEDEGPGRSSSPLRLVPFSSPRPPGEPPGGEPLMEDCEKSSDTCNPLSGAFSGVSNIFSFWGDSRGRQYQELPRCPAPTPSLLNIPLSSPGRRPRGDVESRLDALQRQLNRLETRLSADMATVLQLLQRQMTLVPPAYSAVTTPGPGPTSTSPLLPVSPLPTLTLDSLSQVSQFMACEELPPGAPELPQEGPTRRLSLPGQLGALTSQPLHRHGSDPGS
Data set [16] deals with Rattus norvegicus. Description: Antiallodynic activity in rat spinal nerve ligation model of neuropathic pain assessed as reversal of allodynia at 10 mg/kg, po after 2 hrs. The data set is classed as functional. The settings on record: Rattus norvegicus, Spinal nerve, 2 h.
The subject of data set [17] is Mus musculus. Description: Neurotoxicity in conscious mouse assessed as effect on body temperature at 100 mg/kg after 24 hrs. The data set is classed as toxicity, organism-based. Further details: dose 100 mg/kg. As to conditions: in vivo.

On to `NC(=O)c1cc(C(N)=O)n(-c2cccc(-c3cc(C(F)(F)F)ccc3C(F)(F)F)c2)n1`, for which the Activity entry in the data set with Mus musculus [1], with Canis familiaris [2], in the data set on Canis familiaris [3], in the data set on Canis familiaris [4], in the data set on Canis familiaris [5] and in the data set with Canis familiaris [6] was “Non-toxic” throughout. The Activity entry in the data set on Mus musculus [17] is recorded as “Non-toxic”. The area under the curve (AUC) in [7] stood at 372 µM·h; in [10] it was 50 µM·h. Besides, the Cmax in [8] was determined as 20.3 µM; in data set [11], 2.92 µM. The bioavailability in [9] was 33%; in [12], 60%. In the data set with Rattus norvegicus [13], this molecule returned a clearance of 5 mL/min/kg. The remaining at 1 h, 10 uM in data set [14] is over 99%. This molecule also registered an IC50 on Cytochrome P450 3A4 of over 100 µM. Also, in data set [15], the inhibition at 10 µM is 0%. For the same molecule, at hERG (KCNH2), the inhibition at 30 µM was found to be 15%. The inhibition in vivo at 10 mg/kg in the data set on Rattus norvegicus [16] was 44%.
